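Cultured in 96-well plates, cells were exposed to test compound for 48 hours across five concentrations. The concentration for 50% growth inhibition is given as GI50. TGI marks complete inhibition of growth.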
Key:
Test in all cases: NCI-60 cell line screen, 48 h
[1] = system: HCT-116 colon
[2] = system: EKVX NSCLC
[3] = system: U251 CNS
[4] = system: OVCAR-3 ovarian
[5] = system: PC-3 prostate
[6] = system: HCT-15 colon
[7] = system: UACC-62 melanoma
[8] = system: HOP-92 NSCLC
[9] = system: CCRF-CEM leukemia
[10] = system: MDA-MB-231 breast
[11] = system: HL-60(TB) leukemia
[12] = system: A549 NSCLC
[13] = system: SK-MEL-5 melanoma
[14] = system: SNB-19 CNS
[15] = system: MCF7 breast
[16] = system: TK-10 renal
[17] = system: BT-549 breast
[18] = system: UACC-257 melanoma
[19] = system: SK-MEL-2 melanoma
[20] = system: OVCAR-4 ovarian
[21] = system: COLO 205 colon
[22] = system: ACHN renal
[23] = system: CAKI-1 renal
[24] = system: M14 melanoma
[25] = system: NCI-H226 lung
[26] = system: NCI/ADR-RES ovarian
[27] = system: DU-145 prostate
[28] = system: A498 renal
[29] = system: OVCAR-5 ovarian
[30] = system: NCI-H522 lung
[31] = system: UO-31 renal
[32] = system: HT29 colon
[33] = system: RXF 393 renal
[34] = system: SK-MEL-28 melanoma
[35] = system: T-47D breast
[36] = system: 786-0 renal
[37] = system: SNB-75 CNS
[38] = system: SF-268 CNS
[39] = system: SF-539 CNS
[40] = system: SN12C renal
[41] = system: HOP-62 NSCLC
[42] = system: RPMI-8226 leukemia
[43] = system: OVCAR-8 ovarian
[44] = system: K-562 leukemia
[45] = system: SF-295 CNS
[46] = system: MOLT-4 leukemia
[47] = system: HS 578T breast
[48] = system: NCI-H23 lung
[49] = system: KM12 colon
[50] = system: IGROV1 ovarian
[51] = system: SK-OV-3 ovarian
[52] = system: MALME-3M melanoma
[53] = system: SR leukemia
[54] = system: NCI-H460 lung
[55] = system: HCC-2998 colon
[56] = system: SW-620 colon
[57] = system: LOX IMVI melanoma
[58] = system: MDA-MB-435

C[C@H]1CC2=CC(=O)CC[C@]2(C)[C@H]2CC[C@@]3(C)[C@@H](CC[C@]3(C)O)[C@H]12
GI50 [1]: 31.2 µM
TGI [1]: > 95.2 µM
GI50 [2]: 11.3 µM
TGI [2]: > 100 µM
GI50 [3]: 31 µM
TGI [3]: > 100 µM
GI50 [4]: 33.9 µM
TGI [4]: > 91.8 µM
GI50 [5]: 8.65 µM
TGI [5]: 99.7 µM
GI50 [6]: 28.2 µM
TGI [6]: > 100 µM
GI50 [7]: 22.2 µM
TGI [7]: > 67 µM
GI50 [8]: 8.66 µM
TGI [8]: 44.3 µM
GI50 [9]: 12.1 µM
TGI [9]: 53.7 µM
GI50 [10]: 35 µM
TGI [10]: > 100 µM
GI50 [11]: 12.9 µM
TGI [11]: 36.8 µM
GI50 [12]: 31.9 µM
TGI [12]: > 100 µM
GI50 [13]: 14.8 µM
TGI [13]: 33.3 µM
GI50 [14]: 43.3 µM
TGI [14]: > 100 µM
GI50 [15]: 24.9 µM
TGI [15]: > 76.7 µM
GI50 [16]: 31.5 µM
TGI [16]: 97.5 µM
GI50 [17]: 24.7 µM
TGI [17]: 71.9 µM
GI50 [18]: 35.4 µM
TGI [18]: > 94.1 µM
GI50 [19]: 15.4 µM
TGI [19]: 37.4 µM
GI50 [20]: 38 µM
TGI [20]: > 100 µM
GI50 [21]: 15.8 µM
TGI [21]: 36.1 µM
GI50 [22]: 27.6 µM
TGI [22]: > 100 µM
GI50 [23]: 24 µM
TGI [23]: 77.2 µM
GI50 [24]: 27.2 µM
TGI [24]: > 78.9 µM
GI50 [25]: 30 µM
TGI [25]: > 100 µM
GI50 [26]: 28.7 µM
TGI [26]: > 86.5 µM
GI50 [27]: 45.7 µM
TGI [27]: > 96.3 µM
GI50 [28]: 28.2 µM
TGI [28]: > 82.8 µM
GI50 [29]: 55.9 µM
TGI [29]: > 100 µM
GI50 [30]: 28.4 µM
TGI [30]: 75.5 µM
GI50 [31]: 20.6 µM
TGI [31]: > 78.5 µM
GI50 [32]: 44.7 µM
TGI [32]: > 100 µM
GI50 [33]: 24.8 µM
TGI [33]: 76.9 µM
GI50 [34]: 29.3 µM
TGI [34]: > 85.2 µM
GI50 [35]: 22.5 µM
TGI [35]: 70.3 µM
GI50 [36]: 42.5 µM
TGI [36]: > 100 µM
GI50 [37]: 40.2 µM
TGI [37]: > 100 µM
GI50 [38]: 33.3 µM
TGI [38]: > 100 µM
GI50 [39]: 32.5 µM
TGI [39]: > 100 µM
GI50 [40]: 41.6 µM
TGI [40]: > 100 µM
GI50 [41]: 33.5 µM
TGI [41]: > 76.1 µM
GI50 [42]: 7.58 µM
TGI [42]: 38 µM
GI50 [43]: 34 µM
TGI [43]: > 100 µM
GI50 [44]: 24.7 µM
TGI [44]: > 88.1 µM
GI50 [45]: 21.4 µM
TGI [45]: 62.5 µM
GI50 [46]: 19.3 µM
TGI [46]: 50.6 µM
GI50 [47]: 30.7 µM
TGI [47]: > 89 µM
GI50 [48]: 38.2 µM
TGI [48]: > 100 µM
GI50 [49]: 27.5 µM
TGI [49]: > 75.4 µM
GI50 [50]: 27.3 µM
TGI [50]: > 73.3 µM
GI50 [51]: 39.4 µM
TGI [51]: > 100 µM
GI50 [52]: 26 µM
TGI [52]: > 92.4 µM
GI50 [53]: 21.7 µM
TGI [53]: 55.5 µM
GI50 [54]: 30 µM
TGI [54]: > 100 µM
GI50 [55]: 43.8 µM
TGI [55]: > 100 µM
GI50 [56]: 35.8 µM
TGI [56]: > 100 µM
GI50 [57]: 29.2 µM
TGI [57]: > 100 µM
GI50 [58]: 29.3 µM
TGI [58]: > 88 µM

Source: PubChem BioAssay (NCI)
